Measurements taken from US20190055517A1, “Cell Line of M2c Macrophage and Its Applications” (National Pingtung University of Science and Technology, priority 2017, published 2019).

How the values were obtained:
murine M2 macrophage [1] = experiment: Phagocytosis of FITC-Latex beads with PE-anti-MERTK staining (flow cytometry, fluorescence microscopy); type: cell-based; conditions: fluorescence microscope, PE-MERTK, FIG. 18
Procedure: In this example, experiment was performed to evaluate the effect of baicalin induced differentiated […] macrophages in promoting phagocytosis. Treatment conditions of drugs in each group is listed in chart 2, and control group is cultured in RPMI1640 (10% FCS) without any drugs. After treatment, collect 5×10^5 treated cells respectively and add 50 μl FITC-Latex beads (Phagocytosis assay kit (IgG FITC), Cayman Chemical, USA.) to perform phagocytosis experiment for 24 hours, and then use PE-anti-MERTK antibody to mark the cells and observe the fluorescence expression with flow cytometry.

murine M2 macrophage [2] = experiment: Macrophage phenotype by flow cytometry (CD86, CD206) after drug-induced differentiation; type: cell-based; conditions: conditions of chart 2, p<0.05, FIG. 3
Procedure: (§1) Use PBS containing 0.5% BSA to flush out bone marrow cells from murine (C57BL/6J, 8-20 weeks, Taiwan National Laboratory Animal Center) femur, then use Ficoll-Hypaque (GE healthcare, SWEDEN) to isolate monocytes.
(§2) Then, incubate 2×10^6 monocytes in 50 ng/ml M-CSF contained RPMI 1640 (10% FCS) medium under 37° c., 5% CO2 for seven days to induce M2 macrophage polarization. On the eighth day, collect 2×10^5 M2 macrophage and incubate them in RPMI 1640 (10% FCS) medium with Baicalin (50 μM, Tokyo Chemical Industry, JAPAN) for 24 hours. Baicalin will induce M2 macrophage to differentiate into M2C macrophage.
Embodiment 1 is prepared by the steps described above, isolate monocytes from murine bone marrow and use M-CSF to induce differentiation of M2 macrophage, and then use baicalin to induce M2C macrophage polarization. In comparison 1, incubate murine M2 macrophage in RPMI 1640 (10% FCS) containing LPS (lipopolysaccharide, 1 μg/ml, Sigma-Aldrich) for 2 hours. In comparison 2, incubate murine M2 macrophage in medium containing IL-4 ([…] Guidance System, Cambridge, UK) for 24 hours. The control group of M2 macrophage is incubated in RPMI 1640 (10% FCS) without any drugs. The conditions are shown below in chart 2.
After induced differentiation is complete, use flow cytometry to analyse the macrophage phenotype, in the meantime, also use real time PCR (qPCR) to observe mRNA expression level of each gene.
(§3) FIG. 2˜4 show results of macrophage phenotypes analysed by flow cytometry.

Raw264.7 macrophages = experiment: H2O2 induction of apoptotic cells (annexin-V / 7-AAD flow cytometry); type: cell-based, murine; conditions: 1.5 mM H2O2 versus 0.5 and 1 mM, 12 hours, FIG. 19
Procedure: Inducing apoptotic cells: minor changes were made from steps of obtaining apoptotic cells based on previous studies (Piao et al., 2011 and Fong et al 2007), detailed steps comprising: culture 1.5×10^6 RAW264.7 macrophages with DMEM medium containing 10% FBS in incubator (37° C., 5% CO2). After culturing overnight, treat with 0.5, 1, 1.5 mM H2O2 respectively in DMEM for 12 hours. Next, remove the DMEM medium containing H2O2 and wash the cells with PBS buffer, then use micropipette to transfer cells to 15 ml centrifuge tube and centrifuge cells at 4° C. for 5 mins at rotating speed of 500×g. Remove the supernatant and resuspend the cells with 95 μl […]. Following that, dye the cells with fluorescence marker annexin-V and 7-AAD (BD Bioscience) for 20 mins on ice, avoiding light. After marking the cells, use flow cytometry (FACS BD ARIA II) to detect fluorescence performance. Analysed by software CellQuest (BD Bioscience). If the cells were positive for annexin-V and negative for 7-AAD, the cells will be identified as early apoptotic cells; if the cells were positive for annexin-V and positive for 7-AAD, the cells would be identified as late apoptotic cells.

[3] = tested on: monocytes from murine bone marrow; experiment: M-CSF induced M2 polarization of bone marrow monocytes (flow cytometry CD11b, CD206, CD80); type: cell-based; conditions: 50 ng/ml M-CSF, treated for 7 days, p<0.05, FIG. 2
Procedure: as §1, §2, §3

## lipopolysaccharide [LPS, reference compound]
Murine M2 macrophage [1]
  MERTK fluorescence distribution of cells after phagocytosing FITC-Latex beads: comparatively weaker
Murine M2 macrophage [2]
  percentage of M1 macrophage (CD86+CD206-): higher

## OO [Embodiment H2O2, H2O2]
Raw264.7 macrophages
  percentage of apoptotic cells: higher percentage of apoptotic cells

B1: IL-4: cytokine, 10 ng/ml, 24 hours, comparison drug to induce differentiation (protein, UniProt P05112 25-153, looked up)
Interleukin-4: HKCDITLQEIIKTLNSLTEQKTLCTELTVTDIFAASKNTTEKETFCRAATVLRQFYSHHEKDTRCLGATAQQFHRHKQLIRFLKRLDRNLWGLAGLNSCPVKEANQSTLENFLERLKTIMREKYSKCSS
Murine M2 macrophage [2]
  percentage of M2 macrophage (CD86-CD206+): higher

B2: macrophage colony-stimulating factor (protein, UniProt P09603 33-554, looked up)
Macrophage colony-stimulating …: EEVSEYCSHMIGSGHLQSLQRLIDSQMETSCQITFEFVDQEQLKDPVCYLKKAFLLVQDIMEDTMRFRDNTPNAIAIVQLQELSLRLKSCFTKDYEEHDKACVRTFYETPLQLLEKVKNVFNETKNLLDKDWNIFSKNCNNSFAECSSQDVVTKPDCNCLYPKAIPSSDPASVSPHQPLAPSMAPVAGLTWEDSEGTEGSSLLPGEQPLHTVDPGSAKQRPPRSTCQSFEPPETPVVKDSTIGGSPQPRPSVGAFNPGMEDILDSAMGTNWVPEEASGEASEIPVPQGTELSPSRPGGGSMQTEPARPSNFLSASSPLPASAKGQQPADVTGTALPRVGPVRPTGQDWNHTPQKTDHPSALLRDPPEPGSPRISSLRPQGLSNPSTLSAQPQLSRSHSSGSVLPLGELEGRRSTRDRRSPAEPEGGPASEGAARPLPRFNSVPLTDTGHERQSEGSFSPQLQESVFHLLVPSVILVLLAVGGLLFYRWRRRSHQEPQRADSPLEQPEGSPLTQDDRQVELPV
notes: 50 ng/ml, induces M2 macrophage polarization of monocytes
[3]
  percentage of cells expressing CD11b and CD206 at the same time (CD11b+CD206+): highest percentage
